{"source": "patent US20250129081A1", "about": "“METHANOGEN INHIBITORS” (PASTORAL GREENHOUSE GAS RESEARCH LIMITED, priority 2021, published 2025)", "system": "rumen fluid", "test": "Rumen in vitro (RIV) assay: methane production from incubated rumen fluid", "assay_type": "cell-based, cattle", "details": "for RIV % methane reduction: 60 mL rumen fluid-buffer mixture", "experimental": "The compounds of the present invention were initially screened for activity using an in vitro fully automated incubation system for the measurement of total gas production and gas composition (methane and hydrogen). The system used is described in detail in the paper by Muetzel et al. (2014; Animal Feed Science and Technology 196, 1-11). The system in this specification is referred to as the rumen in vitro system or RIV. The RIV system provides a relatively simple tool for determining the rate and production of methane and also whether the rate and production of methane is inhibited or reduced by a particular compound or feed. Rumen in vitro assays use rumen fluid from donor animals (typically either sheep or cattle) which is typically combined with a buffer and then incubated in sealed fermentation vessels at 39° C. for either 24 or 48 h. These assays systems have been well-characterised and used by the scientific community over the last two decades (Rymer et al. 2005). The system that has been used here to characterise the effects of inhibitors on methane production and gas production, and the formation of H2, was described by Muetzel et al. (2014). Rumen in vitro assay systems reflect what can occur in the rumen in vivo, but only short-term, due to their short incubation times (typically not exceeding 48 h) which is limited by its buffering capacity and the fact that it is a closed system. Stock solutions of inhibitors were re-suspended in dimethylformamide (DMF) at concentrations 1000-fold higher than the highest used for the assays. Any further dilutions were also prepared using DMF. The total amount of inhibitor solution added to the rumen fluid-buffer mixture (60 mL) was 60 μl. Incubations used 60 ml of medium containing 12 ml of filtered rumen fluid and 48 ml of buffer in serum bottles for 24-48 h, essentially as described by Muetzel et al. (2014). Two fistulated cattle were used as donor animals for rumen fluid and treatments were incubated in duplicate bottles. Sets of duplicate incubation vials that contained ryegrass (with rumen fluid-buffer mixture), and ryegrass with 30 μM bromoethanesulfonate (BES) were also incubated as negative and positive controls, respectively. One experiment consists of 2 replicates of an inhibitor at any one concentration run at the same time, and a run can contain up to 32 bottle, including positive (30 µM BES) and negative (no inhibitor added) controls. Compound 1, for example, was tested using the 60 mL rumen in vitro assay system at 30 μM, 10 μM, 2 μM and 1 μM final concentrations and compared to a positive control with 30 μM BES. […] Compound 3 was very active in the RIV and only the lower concentrations of 2 μM and 1 μM were measured.", "data": [{"smiles": "O=c1[nH]c(=O)c2cc3c(=O)n(CCOc4no[n+]([O-])c4S(=O)(=O)c4ccccc4)c(=O)c3cc12", "note": "[Compound 1, 3-(phenylsulfonyl)-4-(2-(1,3,5,7-tetraoxo-3,5,6,7-tetrahydropyrrolo[3,4-f]isoindol-2(1H)-yl)ethoxy)-1,2,5-oxadiazole 2-oxide]", "values": [{"measurement": "RIV % methane reduction", "setting": "1 μM compound", "value": 8.9, "unit": "%"}, {"measurement": "RIV % methane reduction", "setting": "2 μM compound", "value": 23.3, "unit": "%"}, {"measurement": "RIV % methane reduction", "setting": "10 μM compound", "value": 67.8, "unit": "%"}, {"measurement": "RIV % methane reduction", "setting": "30 μM compound", "value": 87.1, "unit": "%"}, {"measurement": "inhibition at 2 µM", "setting": "Bos taurus, 2 μM, at 18 h, 60 mL rumen in vitro assay system, read-out: inhibition level (methane)", "value": "~23.3", "unit": "%"}, {"measurement": "inhibition at 30 µM", "setting": "Bos taurus, 30 μM, at 18 h, 60 mL rumen in vitro assay system, read-out: inhibition level (methane)", "value": "~87.1", "unit": "%"}]}, {"smiles": "O=c1c2cc3c(=O)n(CO[N+](=O)[O-])c(=O)c3cc2c(=O)n1CCOc1no[n+]([O-])c1S(=O)(=O)c1ccccc1", "note": "[Compound 2, 4-(2-(6-((nitrooxy)methyl)-1,3,5,7-tetraoxo-3,5,6,7-tetrahydropyrrolo[3,4-f]isoindol-2(1H)-yl)ethoxy)-3-(phenylsulfonyl)-1,2,5-oxadiazole 2-oxide]", "values": [{"measurement": "RIV % methane reduction", "setting": "1 μM compound", "value": 7.2, "unit": "%"}, {"measurement": "RIV % methane reduction", "setting": "2 μM compound", "value": 30.6, "unit": "%"}, {"measurement": "RIV % methane reduction", "setting": "10 μM compound", "value": 56.1, "unit": "%"}, {"measurement": "RIV % methane reduction", "setting": "30 μM compound", "value": 85.9, "unit": "%"}]}, {"smiles": "Cn1c(=O)c2cc3c(=O)n(CCOc4no[n+]([O-])c4S(=O)(=O)c4ccccc4)c(=O)c3cc2c1=O", "note": "[Compound 3]", "values": [{"measurement": "RIV % methane reduction", "setting": "1 μM compound", "value": 49.0, "unit": "%"}, {"measurement": "RIV % methane reduction", "setting": "2 μM compound", "value": 80.4, "unit": "%"}, {"measurement": "activity in the RIV (in words)", "setting": "only 2 μM and 1 μM measured", "value": "very active"}]}]}
